The record followed here is PubChem BioAssay (NCI).

Some test systems named below: RPMI-8226 leukemia; MCF7 breast; SNB-19 CNS; ACHN renal; OVCAR-5 ovarian; RXF 393 renal; EKVX NSCLC; OVCAR-3 ovarian; NCI/ADR-RES ovarian; HCT-15 colon.
Holding throughout (assay): NCI-60 cell line screen, 48 h

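Five concentrations, 48 hours, 96-well plates. TGI is the concentration that stops growth completely.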 A value given as a limit tells only on which side of the number the result lay.

Consider `CC1=C(CO)C(=O)O[C@@H]([C@@H](CO)[C@H]2CCC3C4C[C@@H](O)[C@@]5(O)CC=CC(=O)[C@]5(C)C4CC[C@@]32C)C1` (stereo not given in full), for which the TGI was over 100 µM in the test with RPMI-8226 leukemia; over 100 µM with MCF7 breast; over 100 µM with SNB-19 CNS; over 100 µM in the test on ACHN renal; over 100 µM with OVCAR-5 ovarian; 92.9 µM in the test with RXF 393 renal. Moreover, the TGI in the test with EKVX NSCLC is over 100 µM; in the test on OVCAR-3 ovarian, 83.9 µM; in the test with NCI/ADR-RES ovarian, over 100 µM; with HCT-15 colon, over 100 µM.

Take `O=C(O)/C=c1/c2ccccc2n2nc3ccccc3c12`: the TGI was 70.1 µM in the test with RPMI-8226 leukemia; over 100 µM with MCF7 breast; 87.3 µM with SNB-19 CNS; 66.1 µM in the test with ACHN renal; over 100 µM in the test on OVCAR-5 ovarian; over 100 µM in the test with RXF 393 renal. Moreover, the TGI was over 100 µM in the test on EKVX NSCLC, over 100 µM with OVCAR-3 ovarian, 81 µM in the test with NCI/ADR-RES ovarian and over 100 µM in the test on HCT-15 colon.

On to `C#C[C@]1(O)CC[C@H]2[C@@H]3CCC4=C/C(=N/OC(=O)c5cccc6c(=O)c7ccccc7[nH]c56)CC[C@@H]4[C@H]3CC[C@@]21C`, for which the TGI in the test with RPMI-8226 leukemia was 54 µM; in the test on MCF7 breast, over 100 µM; with SNB-19 CNS, over 100 µM; with ACHN renal, over 100 µM; in the test on OVCAR-5 ovarian, over 100 µM; with RXF 393 renal, over 100 µM. Moreover, the TGI with EKVX NSCLC, in the test with OVCAR-3 ovarian, in the test with NCI/ADR-RES ovarian and in the test on HCT-15 colon was over 100 µM each time.

`CC(=O)O[C@H]1CC[C@@]2(C)C(=CC[C@H]3[C@@H]4C[C@H](N5CCOCC5)[C@H](OC(C)=O)[C@@]4(C)CC[C@@H]32)C1`: the TGI in the test with RPMI-8226 leukemia, in the test on MCF7 breast, with SNB-19 CNS, in the test with ACHN renal, in the test on OVCAR-5 ovarian and with RXF 393 renal was over 100 µM in each case. The TGI in the test on EKVX NSCLC, with OVCAR-3 ovarian, in the test with NCI/ADR-RES ovarian and with HCT-15 colon was over 100 µM throughout.

As to `O=C1c2cccnc2-c2nccc3c2c1nc1cc(Br)ccc13`, the TGI is 0.448 µM with RPMI-8226 leukemia; 0.083 µM with MCF7 breast; 0.88 µM in the test with SNB-19 CNS; 0.609 µM in the test with ACHN renal; 0.527 µM in the test on OVCAR-5 ovarian; 0.355 µM in the test on RXF 393 renal. Moreover, the TGI in the test on EKVX NSCLC was 2.52 µM; in the test on OVCAR-3 ovarian, 0.2 µM; in the test on NCI/ADR-RES ovarian, 0.0711 µM; in the test with HCT-15 colon, 0.25 µM.

With `C[N+]12CCCCC1C(CN1C(=O)Cc3c4ccccc4c(c4ccccc34)CC1=O)CCC2` (stereo not given), the TGI with RPMI-8226 leukemia, in the test with MCF7 breast, in the test on SNB-19 CNS, in the test on ACHN renal, in the test with OVCAR-5 ovarian and in the test with RXF 393 renal was over 100 µM throughout. Moreover, the TGI in the test on EKVX NSCLC, in the test on OVCAR-3 ovarian, in the test on NCI/ADR-RES ovarian and in the test on HCT-15 colon was over 100 µM throughout.

Take `COC(=O)C1=C(C)NC(C)=C(C(=O)OC)C1c1nc2sccn2c1[N+](=O)[O-]`: the TGI with RPMI-8226 leukemia, in the test with MCF7 breast, in the test with SNB-19 CNS, with ACHN renal, in the test with OVCAR-5 ovarian and in the test on RXF 393 renal was over 100 µM each time. Further, the TGI in the test on EKVX NSCLC, in the test on OVCAR-3 ovarian, in the test on NCI/ADR-RES ovarian and in the test with HCT-15 colon was over 100 µM throughout.

Consider `NNC(=O)CSc1nc2ccccc2c(=O)n1N`, for which the TGI with RPMI-8226 leukemia was over 100 µM; in the test with MCF7 breast, over 100 µM; in the test on SNB-19 CNS, 44.6 µM; with ACHN renal, 99.1 µM; with OVCAR-5 ovarian it was over 100 µM; in the test with RXF 393 renal, 95.5 µM. For the same compound, the TGI in the test with EKVX NSCLC, with OVCAR-3 ovarian, in the test with NCI/ADR-RES ovarian and with HCT-15 colon was over 100 µM in each case.
